# Measured values reported in patent publication US4489052A, “Quantitative autoradiographic mapping of focal herpes simplex virus encephalitis using a radiolabeled antiviral drug” (priority 1982, dated 1984).
# Columns and labels:
# [1] = rat; cited from earlier work
# HSV-1 = assay: Quantitative autoradiography of ^14 C-FMAU uptake in HSV-1-infected rats (focal encephalitis); settings: for ^14 C Radioactivity Concentration: ± SD
# Description: (§1) These initial studies reflect observations on ten rats receiving ^14 C-FMAU. Seven of these were infected, and three uninfected control rats were subjected to a cortical freeze lesion (13) to test the effects of necrosis and breakdown of the blood-brain barrier on drug distribution.
# [2] = rat, in vivo
# Description: as §1
# [3] = Arterial plasma ^14 C activity by liquid scintillation counting; settings: representative infected rat
# HSV = settings: NIAID Collaborative Study; cited from earlier work
smiles,measurement,setting,value
Cc1cn([C@@H]2O[C@H](CO)[C@@H](O)[C@@H]2F)c(=O)[nH]c1=O [FMAU],metabolic alteration,[1],only a minor fraction undergoes metabolic alteration
Cc1cn([C@@H]2O[C@H](CO)[C@@H](O)[C@@H]2F)[14c](=O)[nH]c1=O [^14 C-FMAU],isotope uptake within infected brain regions,HSV-1; 24 hours after isotope injection,similarly enhanced within infected brain regions
same,activity in lateral walls of the lateral ventricles,"HSV-1; 24 hours, apparently uninfected ependymal lining",higher activity was noted
same,^14 C Radioactivity Concentration,"HSV-1; Brain (C): Background, left cortex, viral antigen -, 6 hours",104.35 ± 4.88 nCi/gm
same,^14 C Radioactivity Concentration,"HSV-1; Brain (C): Left ventricular choroid plexus, viral antigen -, 6 hours",188.59 ± 9.18 nCi/gm
same,^14 C Radioactivity Concentration,"HSV-1; Brain (C): Optic chiasm, right, viral antigen +, 6 hours",325.12 ± 16.46 nCi/gm
same,^14 C Radioactivity Concentration,"HSV-1; Brain (D): Background, left cortex, viral antigen -, 6 hours",95.29 ± 4.32 nCi/gm
same,^14 C Radioactivity Concentration,"HSV-1; Brain (D): Left hypothalamus, viral antigen +, 6 hours",1170.91 ± 66.90 nCi/gm
same,^14 C Radioactivity Concentration,"HSV-1; Brain (D): Left optic tract, viral antigen +, 6 hours",1105.89 ± 77.34 nCi/gm
same,^14 C Radioactivity Concentration,"HSV-1; Brain (D): Right hypothalamus, viral antigen +, 6 hours",1138.10 ± 99.57 nCi/gm
same,^14 C Radioactivity Concentration,"HSV-1; Brain (E): Background, left cortex, viral antigen -, 6 hours",96.78 ± 4.66 nCi/gm
same,^14 C Radioactivity Concentration,"HSV-1; Brain (E): Background, right central thalamus, viral antigen -, 6 hours",67.47 ± 3.90 nCi/gm
same,^14 C Radioactivity Concentration,"HSV-1; Brain (E): Left dorsomedial thalamus, viral antigen +, 6 hours",1183.53 ± 163.31 nCi/gm
same,^14 C Radioactivity Concentration,"HSV-1; Brain (E): Left lateral thalamus, viral antigen +, 6 hours",198.21 ± 21.00 nCi/gm
same,^14 C Radioactivity Concentration,"HSV-1; Brain (F): Background, left cortex, viral antigen -, 6 hours",106.57 ± 5.53 nCi/gm
same,^14 C Radioactivity Concentration,"HSV-1; Brain (F): Central midbrain, viral antigen +, 6 hours",468.81 ± 23.96 nCi/gm
same,^14 C Radioactivity Concentration,"HSV-1; Brain (G): Background, central brainstem, viral antigen -, 6 hours",110.97 ± 9.98 nCi/gm
same,^14 C Radioactivity Concentration,"HSV-1; Brain (G): Background, left cortex, viral antigen -, 6 hours",83.08 ± 7.70 nCi/gm
same,^14 C Radioactivity Concentration,"HSV-1; Brain (G): Pineal gland, viral antigen +, 6 hours",1509.18 ± 97.65 nCi/gm
same,^14 C Radioactivity Concentration,"HSV-1; Eye (B): Retina, inferior, viral antigen +, 6 hours",1528.07 ± 140.36 nCi/gm
same,^14 C Radioactivity Concentration,"HSV-1; Eye (B): Retina, posterior, viral antigen +, 6 hours",2447.81 ± 172.66 nCi/gm
same,^14 C Radioactivity Concentration,"HSV-1; Liver, viral antigen staining -, 6 hours after ^14 C-FMAU (5 mg/kg i.v.)",188.25 ± 13.19 nCi/gm
same,^14 C activity within infected regions vs background,HSV-1; each HSV-1-infected rat,exceeded background within infected regions and correlating closely with viral antigen staining in each case
same,selectivity of uptake by infected brain cells,"HSV-1; radiolabeled FMAU, HSV-1 infection",selectively taken up by infected brain cells
same,background distribution of ^14 C activity,"HSV-1; uninfected brain regions, 6 hours","quite uniform, with only minor variations among uninfected brain regions"
same,isotope uptake in or surrounding the area of necrosis,[2],no increase in isotope uptake was detected
same,plasma ^14 C-FMAU concentration time course,"[3]; 5 mg/kg i.v., to 6 hours",fell rapidly over the first 30 mins and more slowly thereafter
same,plasma ^14 C-FMAU concentration at the time of sacrifice,[3]; 6 hours after 5 mg/kg i.v.,approximately 185 nCi/gm
Nc1ncnc2c1ncn2[C@@H]1O[C@H](CO)[C@@H](O)[C@@H]1O [ara-A],therapeutic effect in HSV encephalitis,HSV,less than optimal
